From US6399570B1, “Antimicrobial/endotoxin neutralizing polypeptide” (priority 1999, dated 2002)

What was measured:
E. coli = experiment: Ionic strength effect on antimicrobial activity; format: cell-based; details: 25 μM polypeptide
Method: For example, reducing the ionic strength from 150 mM NaCl to 50 mM NaCl reduces the number of viable bacteria after exposure by ˜10,000-fold.
Determining ionic strength effect on antimicrobial activity. E. coli were cultured overnight as described earlier. […] To control for the effects of salt alone on culture growth, the ratio of CFU in polypeptide treated cultures to that in untreated control cultures, grown in the same salt concentration but lacking any polypeptide treatment, was calculated for each salt concentration examined. These values were then normalized to the ratio calculated for CFUs measured at […], the lowest salt concentration tested, and plotted on the Y-axis versus increasing concentration of salt on the X-axis.

S. abortus LPS = experiment: Limulus ELISA, ENC50 against S. abortus LPS; format: biochemical, Salmonella abortus equi; details: endotoxin 200 EU/ml; mean +/− SD
Method: (§1) The peptide-mediated inhibition of endotoxin-induced Limulus amebocyte lysate (LAL) coagulation was measured with a sensitive LAL assay (Zhang et al., J. Clin. Microbiol. 32: 416-422 (1994)). Limulus ELISA is an endotoxin assay based on activation of the LAL coagulation by endotoxin and detection of the generated peptide-C immunoreactivity with an ELISA using a monoclonal antibody to the polypeptide. Endotoxin was defined to be neutralized when it lost its ability to activate the LAL enzymes. The 50% endotoxin-neutralizing concentration (ENC50) reflects the potency of an anti-endotoxin agent; a low ENC50 indicates high potency. Table 2 lists the determined ENC50 value of each anti-endotoxin agent against lipid A and four different types of LPS. The potency of each anti-endotoxin agent varied depending on the type of endotoxin. […] The only difference between the sequence of LF-33 and LF-27 is that LF-27 lacks the first six residues (GRRRRS) at the N-terminus of LF-33. Remarkably, this deletion led to dramatic loss of the endotoxin-neutralizing capacity of the polypeptide in this assay. Binding of serum proteins to endotoxin neutralizes the endotoxin activity in this assay by preventing endotoxin from activating LAL (Emancipator et al., Infect. Immun. 60: 596-601 (1992)).
(§2) LPS. […] LPS (purity >99%) from Neisseria meningitidis was prepared from the group B strain #6275 and its potency was 25 EU/ng. […] The potency of the above endotoxin was determined with the Limulus enzyme-linked immunosorbent assay (ELISA, 43) in comparison with US Pharmacopeia reference standard endotoxin EC-5.
(§3) Briefly, 25 μl endotoxin solution (200 EU/ml) was mixed with an equal volume of test materials in a series of two-fold dilution in 0.15 M NaCl in a sterile 96-well tissue culture plate (Nunc A/S, Roskilde, Denmark), and incubated at 37° C. for 1 h in a dry-air incubator. […] The endotoxin activity was then quantified with the use of Limulus ELISA (Zhang et al., J. Clin. Microbiol. 32: 416-422 (1994)). […] The high sensitivity of the assay allowed for very low levels of the endotoxin activity to be detected. […]

E. coli 0111 = experiment: Time course of E. coli growth in the presence of LF polypeptides; format: cell-based; details: 50 μM, seven hour time course, OD 600 nm
Method: To investigate whether regions of the molecule involved in GAG binding activity of the 6 kDa LF polypeptide (generated from pepsin digestion) are also involved in the antimicrobial activity of the 6 kDa polypeptide of the present invention, polypeptides of various lengths corresponding to the N-terminal amino acid sequence of LF were tested for the ability to inhibit the growth of E. coli 0111. Overnight cultures were grown over a seven hour time course in the presence of 50 μM of either LF, a 33-mer corresponding to amino acids 1-33 of LF, a 26-mer corresponding to […] of LF, a 27-mer corresponding to amino acids 1-27 of LF. […] This is consistent with LF and the 33-mer inhibiting bacterial growth via different mechanisms. […] The failure of the 26-mer and the 27-mer to inhibit culture growth emphasizes the importance of retaining both clusters of basic residues, at the termini of the 33-mer, for the antimicrobial functionality of polypeptides derived from the N-terminal LF sequence.
Time course of E. coli growth in the presence of LF polypeptides. E. coli cells, clinical isolate strain 0111, were obtained from ATCC. […] Culture growth was monitored spectrophotometrically by measuring optical density at 600 nm at each indicated time point.

Lipid A = experiment: Limulus ELISA, ENC50 against Lipid A; format: biochemical, E. coli K12
Method: as §1, §2, §3

Row | Molecule | reduction of number of viable bacteria on reducing ionic strength (E. coli; from 150 mM NaCl to 50 mM NaCl) | growth inhibiting activity at elevated ionic strength (E. coli; ionic strengths equal to or greater than 200 mM NaCl) | ENC50 against S. abortus LPS (S. abortus LPS) | IC50 (S. abortus LPS) | growth of E. coli 0111 cultures (E. coli 0111) | fold less potent than LF-33 at neutralizing lipid A (Lipid A) | IC50 (Lipid A; endotoxin 200 EU/ml, mean +/− SD)
1 | 6 kDa polypeptide: 6 kDa fragment produced by cathepsin D digestion of human LF, amino acids 1-49 of SEQ ID NO: 2 (GRRRRSVQWCAVSQPEATKCFQWQRNMRKVRGPPVSCIKRDSPIQCIQA; listed as Homo sapiens) | ~10,000 fold | essentially lost |  |  |  |  | 
2 | CSCC[C@H](NC(=O)[C@H](CC(N)=O)NC(=O)[C@H](CCCNC(=N)N)NC(=O)[C@H](CCC(N)=O)NC(=O)[C@H](Cc1c[nH]c2ccccc12)NC(=O)[C@H](CCC(N)=O)NC(=O)[C@H](Cc1ccccc1)NC(=O)[C@H](CS)NC(=O)[C@H](CCCCN)NC(=O)[C@@H](NC(=O)[C@H](C)NC(=O)[C@H](CCC(=O)O)NC(=O)[C@@H]1CCCN1C(=O)[C@H](CCC(N)=O)NC(=O)[C@H](CO)NC(=O)[C@@H](NC(=O)[C@H](C)NC(=O)[C@H](CS)NC(=O)[C@H](Cc1c[nH]c2ccccc12)NC(=O)[C@H](CCC(N)=O)NC(=O)[C@@H](N)C(C)C)C(C)C)[C@@H](C)O)C(=O)N[C@@H](CCCNC(=N)N)C(=O)N[C@@H](CCCCN)C(=O)N[C@H](C(=O)N[C@@H](CCCNC(=N)N)C(=O)NCC(=O)N1CCC[C@H]1C(=O)O)C(C)C [LF-27] |  |  | no detectable activity | > 300000 nM | failure | approximately 10 fold | 630 nM
